Measurements reported in patent US20040072315A1, “Integrin-binding chimeras” (priority 2003, published 2004).
Where a SMILES comes first, the peptide text is derived from it. Bridges are numbered along the chain shown (N, C = ends). [ ]: non-standard residue; d: D form. hArg = N=C(N)NCCCC[C@H](N)C(=O)O; Mpa = O=C(O)CCS

Key:
[1] = system: platelets in PRP from citrated human blood; assay: ADP-induced platelet aggregation in PRP (light transmission); type: cell-based; conditions: 10 μM ADP; for IC50: molar value (MW of Repro assumed 42 Kd, Integrilin 720d), read-out: Inhibition of ADP-induced platelet aggregation
Experimental: Platelet aggregation was measured by the increase in light transmission as described previously. Briefly, PRP was prepared from citrated human blood, obtained from healthy individuals, by centrifugation at 200×g for 15 mins. Platelet aggregation was induced with 10 μM ADP and measured using a Payton Dual-Aggregometer linked to a chart recorder.
The efficacy of wild-type and five variants of dendroaspin was assessed using ADP-induced platelet aggregation in PRP. The percentage of inhibition of platelet aggregation by these mutant dendroaspins was compared with wild-type dendroaspin and the inhibition of platelet aggregation expressed as IC50 values.

platelets = assay: collagen-induced platelet aggregation; type: cell-based, human; conditions: for IC50: molar value (MW of Repro assumed 42 Kd, Integrilin 720d), read-out: Inhibition of collagen-induced platelet aggregation
Experimental: Platelet aggregation was measured by the increase in light transmission as described previously. Briefly, PRP was prepared from citrated human blood, obtained from healthy individuals, by centrifugation at 200×g for 15 mins. […]

[2] = molecular target: integrin αIIbβ3 (glycoprotein GP IIb/IIIa) on human platelets (human) (UniProt P08514); assay: cell-based or functional assay
factor Xa [3] = molecular target: factor Xa (Homo sapiens, UniProt P00742); conditions: slow, tight-binding inhibitor; cited from earlier work
Sequence of factor Xa (Homo sapiens, UniProt P00742) (P00742 235-488 limits assumed): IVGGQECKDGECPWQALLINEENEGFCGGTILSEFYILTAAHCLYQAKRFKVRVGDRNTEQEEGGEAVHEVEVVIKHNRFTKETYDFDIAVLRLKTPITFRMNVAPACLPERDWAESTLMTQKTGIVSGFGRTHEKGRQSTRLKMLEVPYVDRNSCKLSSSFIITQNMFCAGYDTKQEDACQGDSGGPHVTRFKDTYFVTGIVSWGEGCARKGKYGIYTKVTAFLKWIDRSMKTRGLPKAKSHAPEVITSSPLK
Sequence of factor Xa (Homo sapiens, UniProt P00742) (P00742 41-179 partner limits assumed): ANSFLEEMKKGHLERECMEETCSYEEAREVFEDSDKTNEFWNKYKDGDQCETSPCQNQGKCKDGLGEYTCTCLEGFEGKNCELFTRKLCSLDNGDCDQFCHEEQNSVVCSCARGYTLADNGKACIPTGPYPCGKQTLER

[4] = system: factor VIIa, kallikrein, trypsin, chymotrypsin, thrombin, urokinase, plasmin, tissue plasminogen activator, elastase, Staphylococcus aureus V8 protease; conditions: 300-fold molar excess; cited from earlier work
factor Xa [5] = assay: single-stage chromogenic assay of factor Xa inhibition (S-2765); type: biochemical; conditions: chromogenic substrate S-2765, 30 min preincubation; for IC50: read-out: Anti-Xa
Experimental: A single-stage chromogenic assay of factor Xa inhibition was used to determine this recombinant molecule. Clotting factor Xa was diluted to […] in 10 mM Hepes (pH 7.5) containing 0.1% bovine serum albumin and 150 mM NaCl (HBSA). Fifty microliters of sample (diluted at vary concentrations into HSBA) were incubated for 30 min at room temperature with 100 μl of factor Xa in a 96-well microtiter plate. Fifty microliters of 1 mM S-2765, a chromogenic substrate for factor Xa, was then added, and the initial rate (mOD per min) of substrate hydrolysis over 5 min was measured at 405/650 nm by using a automated plate reader.

[6] = system: 11 other serine proteases; conditions: only protease inhibited among 11 other serine proteases; cited from earlier work

| Molecule | Inhibition of ADP-induced platelet aggregation [1] | IC50 [1] | Inhibition of collagen-induced platelet aggregation (platelets) | IC50 (platelets) | Anti-Xa (factor Xa [5]) | IC50 (factor Xa [5]) | further results |
| --- | --- | --- | --- | --- | --- | --- | --- |
| N=C(N)NCCCC[C@@H]1NC(=O)CCSSC[C@@H](C(N)=O)NC(=O)[C@@H]2CCCN2C(=O)[C@H](Cc2c[nH]c3ccccc23)NC(=O)[C@H](CC(=O)O)NC(=O)CNC1=O [Integrilin] ([Mpa][hArg]GDWPC-NH2; disulfide 1-7) | 0.2 µg/mL | 277 nM | 0.23 µg/mL | 319 nM | – | – | – |
| Dendroaspin (ligand) | – | – | – | – | – | – | Inhibition of ADP-induced platelet aggregation [2]: 1.2 µg/mL |
| Repro: also known as 7E3, a known inhibitor of integrin-mediated binding; MW assumed 42 Kd | 3.2 µg/mL | 76 nM | 3.80 µg/mL | 90 nM | – | – | – |
| TAP: tick anticoagulant peptide from Ornithodoros moubata, factor Xa inhibitor (YNRLCIKPRDWIDECDSNEGGERAYFRNGKGGCDSFWICPEDHTGADYYSSYRDCFNACI) | – | – | – | – | 0.02 to 0.07 µg/mL | 2.8 to 10 nM | Ki (factor Xa [3]): 0.588 nM; effect on other proteases [4]: no effect |
| NAP5: anticoagulant protein of hookworm Ancylostoma caninum, SEQ ID NO:28 (protein, Description of Artificial Sequence: NAP portion of ND9) KAYPECGENEWLDDCGTQKPCEAKCNEEPPEEEDPICRSRGCLLLPACVCKDGFYRDTVIGDCVREEECDQHEIIH | – | – | – | – | – | – | inhibition of Factor Xa [6]: 50% |
| ND9-M3: cleaved ND9 with a fragment of NAP5 linked to dendroaspin, SEQ ID NO:30 (protein, Descriotion of Artificial Sequence: protein fragment ND9-F3) RSRGCLLLPACVCKDGFYRDTVIGDCVREEECDQHEIIHVGGGGPGPGGGPGGRICYNHLGTKPPTTETCQEDSCYKNIWTFDNIIRRGCGCFTARGDMPGPYCCESDNCNL | 4.2 µg/mL | 260 nM | 3.90 µg/mL | 240 nM | 2.3 µg/mL | 141 nM | – |
